Reference: article doi:10.1101/2025.03.14.643404, “A Bivalent Molecular Glue Linking Lysine Acetyltransferases to Oncogene-induced Cell Death” (bioRxiv, 2025)

Target: T1, FLAG-tagged BCL6 (Homo sapiens, UniProt P41182+Q09472+Q92793)
T1 construct: endogenous in cells; host or cells: SUDHL5, CRISPR genomic knock-in at the BCL6 stop codon
Assay: FLAG IP-MS in FLAG-tagged BCL6 knock-in SUDHL5
Type: cell-based
Conditions: FLAG-BCL6 SUDHL5, 1 nM, 2 h
Method: 50 million FLAG-BCL6 knock-in SUDHL5 cells were treated compound or DMSO (0.1%) at indicated doses for 2 hours. Cells were lysed in NE10 buffer (20 mM HEPES (pH 7.5), 10 mM KCl, 1 mM MgCl2, 0.1% Triton X-100 (v/v), protease inhibitors (Roche), 15 mM ß-mercaptoethanol), dounced 15 times and pelleted 5 min at 500 g. Nuclei were washed in NE10 buffer and then digested with 250 units benzonase (Millipore) for 30 min rotating at 25°C. Nuclei were resuspended in NE150 buffer (NE10 supplemented with 150mM NaCl) and incubated for 20 min. Lysates were pelleted at 16,000 g for 20 min at 4°C and supernatants were immunoprecipitated by incubating with 2.5 μg FLAG M2 antibody (F1804, Millipore-Sigma) or 2.5 μg p300 (A300–358A, Bethyl Laboratories) antibody with Dynabeads Protein G (Thermo Fisher) overnight at 4°C. The IP fraction was recovered by magnetic separation followed by three washes with NE10 buffer containing 150mM–300mM NaCl but without Triton-X. For mass spectrometry analysis, the IP was then eluted from the beads with Ammonium Hydroxide, pH 11–12; 3% v/v. […]
The reconstituted desalted peptides were then analyzed using a nanoElute 2 UHPLC (Bruker Daltonics, Bremen, Germany) coupled to a timsTOF HT (Bruker Daltonics, Bremen, Germany) via a CaptiveSpray nano-electrospray source. […]

T1 sequence (Q92793 2-2442 limits assumed, other chains not shown): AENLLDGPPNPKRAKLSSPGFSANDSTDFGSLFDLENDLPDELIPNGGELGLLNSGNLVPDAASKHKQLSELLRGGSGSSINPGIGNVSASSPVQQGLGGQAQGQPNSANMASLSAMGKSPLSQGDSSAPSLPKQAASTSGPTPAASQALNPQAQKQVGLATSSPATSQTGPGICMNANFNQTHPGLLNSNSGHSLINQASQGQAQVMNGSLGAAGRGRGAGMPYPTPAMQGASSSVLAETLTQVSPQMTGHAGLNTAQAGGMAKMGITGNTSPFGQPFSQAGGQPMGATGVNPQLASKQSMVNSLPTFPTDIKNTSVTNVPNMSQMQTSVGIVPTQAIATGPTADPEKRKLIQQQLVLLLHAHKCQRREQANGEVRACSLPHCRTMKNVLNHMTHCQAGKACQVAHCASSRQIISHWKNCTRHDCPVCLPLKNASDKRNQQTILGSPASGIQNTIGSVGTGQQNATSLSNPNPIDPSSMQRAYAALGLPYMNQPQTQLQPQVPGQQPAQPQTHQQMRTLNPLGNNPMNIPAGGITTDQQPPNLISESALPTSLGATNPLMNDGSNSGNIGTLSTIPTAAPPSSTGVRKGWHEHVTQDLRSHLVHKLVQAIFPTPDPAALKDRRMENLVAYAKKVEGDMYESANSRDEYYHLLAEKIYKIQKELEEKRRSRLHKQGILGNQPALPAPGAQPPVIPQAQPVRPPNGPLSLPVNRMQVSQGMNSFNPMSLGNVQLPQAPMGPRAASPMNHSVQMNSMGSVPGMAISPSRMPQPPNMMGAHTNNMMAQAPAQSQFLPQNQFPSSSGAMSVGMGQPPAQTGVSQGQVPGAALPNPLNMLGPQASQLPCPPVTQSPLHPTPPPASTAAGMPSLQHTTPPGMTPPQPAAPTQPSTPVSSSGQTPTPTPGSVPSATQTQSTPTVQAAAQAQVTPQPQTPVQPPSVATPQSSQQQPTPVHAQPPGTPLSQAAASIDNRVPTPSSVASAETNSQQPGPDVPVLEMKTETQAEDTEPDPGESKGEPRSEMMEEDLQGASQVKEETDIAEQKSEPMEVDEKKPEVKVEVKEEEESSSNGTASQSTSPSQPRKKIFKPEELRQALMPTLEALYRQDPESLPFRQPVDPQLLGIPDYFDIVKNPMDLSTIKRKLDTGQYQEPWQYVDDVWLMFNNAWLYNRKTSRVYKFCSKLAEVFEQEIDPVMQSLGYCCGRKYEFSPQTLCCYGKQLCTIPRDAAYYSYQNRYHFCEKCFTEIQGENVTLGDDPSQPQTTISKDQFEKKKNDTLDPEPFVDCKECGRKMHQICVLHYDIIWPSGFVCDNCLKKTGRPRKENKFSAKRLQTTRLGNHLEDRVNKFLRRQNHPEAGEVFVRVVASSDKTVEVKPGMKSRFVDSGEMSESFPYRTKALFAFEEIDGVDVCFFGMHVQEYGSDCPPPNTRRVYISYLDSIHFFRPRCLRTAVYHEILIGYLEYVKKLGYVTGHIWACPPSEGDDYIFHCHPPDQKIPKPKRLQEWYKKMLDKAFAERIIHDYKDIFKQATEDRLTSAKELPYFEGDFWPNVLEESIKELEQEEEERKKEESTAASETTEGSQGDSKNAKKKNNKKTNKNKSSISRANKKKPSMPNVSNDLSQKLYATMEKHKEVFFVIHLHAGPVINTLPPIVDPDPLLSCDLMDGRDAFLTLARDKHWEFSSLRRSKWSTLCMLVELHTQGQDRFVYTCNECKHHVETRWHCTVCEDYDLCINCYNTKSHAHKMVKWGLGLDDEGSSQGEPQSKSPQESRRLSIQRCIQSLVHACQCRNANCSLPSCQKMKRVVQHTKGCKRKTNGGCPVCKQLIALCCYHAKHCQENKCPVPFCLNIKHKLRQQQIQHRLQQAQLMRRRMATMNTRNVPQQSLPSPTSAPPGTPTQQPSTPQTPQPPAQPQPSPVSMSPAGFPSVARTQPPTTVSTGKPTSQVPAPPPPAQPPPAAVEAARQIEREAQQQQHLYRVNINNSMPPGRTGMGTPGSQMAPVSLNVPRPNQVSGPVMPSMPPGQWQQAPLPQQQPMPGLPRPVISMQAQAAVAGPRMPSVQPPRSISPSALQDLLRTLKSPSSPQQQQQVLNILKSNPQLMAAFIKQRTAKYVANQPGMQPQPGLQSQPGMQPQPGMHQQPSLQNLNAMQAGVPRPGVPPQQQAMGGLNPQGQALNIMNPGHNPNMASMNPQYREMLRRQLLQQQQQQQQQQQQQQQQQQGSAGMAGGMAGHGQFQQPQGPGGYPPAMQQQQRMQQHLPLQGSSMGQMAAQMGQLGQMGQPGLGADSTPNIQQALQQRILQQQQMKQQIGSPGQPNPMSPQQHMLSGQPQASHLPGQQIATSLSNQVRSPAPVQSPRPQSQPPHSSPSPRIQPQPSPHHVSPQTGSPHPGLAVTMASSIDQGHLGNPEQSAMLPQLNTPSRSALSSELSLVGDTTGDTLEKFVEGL
T1 sequence (Q09472 2-2414 limits assumed, other chains not shown): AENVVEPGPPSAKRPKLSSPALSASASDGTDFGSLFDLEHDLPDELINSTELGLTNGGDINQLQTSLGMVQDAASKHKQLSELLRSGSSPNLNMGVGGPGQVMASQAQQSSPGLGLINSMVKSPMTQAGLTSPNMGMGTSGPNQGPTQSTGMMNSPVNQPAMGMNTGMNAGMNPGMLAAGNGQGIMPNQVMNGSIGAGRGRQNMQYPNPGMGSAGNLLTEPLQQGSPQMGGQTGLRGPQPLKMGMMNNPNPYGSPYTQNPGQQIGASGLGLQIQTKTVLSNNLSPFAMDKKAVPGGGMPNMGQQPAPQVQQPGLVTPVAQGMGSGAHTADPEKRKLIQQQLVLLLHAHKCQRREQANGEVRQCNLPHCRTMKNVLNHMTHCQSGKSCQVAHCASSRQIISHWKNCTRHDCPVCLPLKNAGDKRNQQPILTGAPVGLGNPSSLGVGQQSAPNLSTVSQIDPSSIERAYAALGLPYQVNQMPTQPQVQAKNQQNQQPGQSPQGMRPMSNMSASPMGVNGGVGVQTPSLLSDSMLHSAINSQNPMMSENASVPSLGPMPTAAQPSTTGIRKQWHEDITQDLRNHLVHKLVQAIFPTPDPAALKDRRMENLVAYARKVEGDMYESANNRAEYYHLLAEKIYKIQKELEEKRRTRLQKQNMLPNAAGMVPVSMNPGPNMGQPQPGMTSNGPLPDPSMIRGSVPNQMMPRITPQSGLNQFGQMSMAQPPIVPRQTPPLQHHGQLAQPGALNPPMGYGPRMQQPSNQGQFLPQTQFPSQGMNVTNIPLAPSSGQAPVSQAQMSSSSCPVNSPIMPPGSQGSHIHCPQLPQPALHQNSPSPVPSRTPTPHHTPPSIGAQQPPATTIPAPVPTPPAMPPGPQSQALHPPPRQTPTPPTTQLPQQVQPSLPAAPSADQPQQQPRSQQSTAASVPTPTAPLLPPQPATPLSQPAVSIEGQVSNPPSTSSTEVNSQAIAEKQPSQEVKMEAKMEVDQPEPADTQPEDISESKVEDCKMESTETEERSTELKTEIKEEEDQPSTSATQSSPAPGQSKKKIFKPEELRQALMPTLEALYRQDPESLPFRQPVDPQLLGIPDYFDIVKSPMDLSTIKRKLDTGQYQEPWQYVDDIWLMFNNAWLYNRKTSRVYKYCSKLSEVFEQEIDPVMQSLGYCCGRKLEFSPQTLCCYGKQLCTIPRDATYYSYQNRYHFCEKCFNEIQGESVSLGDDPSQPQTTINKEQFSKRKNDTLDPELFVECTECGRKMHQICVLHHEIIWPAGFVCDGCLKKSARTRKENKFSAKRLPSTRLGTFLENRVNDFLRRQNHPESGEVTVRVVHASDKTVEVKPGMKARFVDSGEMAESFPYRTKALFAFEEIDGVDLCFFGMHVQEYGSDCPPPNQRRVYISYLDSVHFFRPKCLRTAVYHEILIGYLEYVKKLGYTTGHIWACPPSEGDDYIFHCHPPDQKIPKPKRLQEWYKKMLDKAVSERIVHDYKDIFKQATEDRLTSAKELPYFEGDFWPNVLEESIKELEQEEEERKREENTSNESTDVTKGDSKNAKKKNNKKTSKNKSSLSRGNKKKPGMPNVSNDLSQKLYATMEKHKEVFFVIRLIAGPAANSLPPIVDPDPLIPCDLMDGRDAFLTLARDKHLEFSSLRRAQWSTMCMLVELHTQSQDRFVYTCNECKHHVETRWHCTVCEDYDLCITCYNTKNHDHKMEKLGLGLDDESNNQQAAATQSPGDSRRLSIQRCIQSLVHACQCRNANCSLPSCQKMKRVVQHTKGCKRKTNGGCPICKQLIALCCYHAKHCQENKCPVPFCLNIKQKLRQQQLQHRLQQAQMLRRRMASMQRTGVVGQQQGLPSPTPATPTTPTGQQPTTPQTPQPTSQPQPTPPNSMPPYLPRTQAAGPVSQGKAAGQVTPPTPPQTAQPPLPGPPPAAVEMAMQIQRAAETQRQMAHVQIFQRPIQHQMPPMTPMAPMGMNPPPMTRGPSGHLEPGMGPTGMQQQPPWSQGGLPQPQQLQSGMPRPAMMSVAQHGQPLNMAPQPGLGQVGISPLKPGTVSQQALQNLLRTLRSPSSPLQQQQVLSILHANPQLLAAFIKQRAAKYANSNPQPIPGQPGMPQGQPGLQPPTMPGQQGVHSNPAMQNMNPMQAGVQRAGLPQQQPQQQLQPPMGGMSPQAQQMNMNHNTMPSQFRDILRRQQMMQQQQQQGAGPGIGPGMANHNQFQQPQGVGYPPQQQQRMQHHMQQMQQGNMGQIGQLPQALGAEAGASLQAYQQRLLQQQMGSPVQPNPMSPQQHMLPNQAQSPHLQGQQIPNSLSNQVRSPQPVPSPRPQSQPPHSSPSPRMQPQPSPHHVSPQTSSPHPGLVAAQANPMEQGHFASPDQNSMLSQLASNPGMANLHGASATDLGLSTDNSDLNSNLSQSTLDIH

- enrichment of CBP in FLAG-BCL6 IP, log2(fold change) (vs DMSO): 3.7
- enrichment of p300 in FLAG-BCL6 IP, log2(fold change) (no peptides in DMSO, imputed): 3.7
SMILES: CNC(=O)COc1cc2cc(Nc3nc(N4CCC(C(=O)N5CCN(CCC(=O)N6CCC(n7nc(N8CCCc9cc(-c%10cnn(C)c%10)c(C(F)F)cc98)c8c7CCN(C(=O)NC)C8)CC6)CC5)CC4)ncc3Cl)cc(OC)c2n(C)c1=O [TCIP3]
